Reference: paper PMC3066543, “Procyanidins are potent inhibitors of LOX-1: a new player in the French Paradox” (Proceedings of the Japan Academy. Series B, Physical and …, 2011)

Legend:
[1] = target: T1, human LOX-1 (Homo sapiens, UniProt P78380); test: DiI-oxLDL binding to LOX-1-CHO cells (4 ℃, 45 min); format: cell-based
T1 construct: expressed in transfected cells; host or cells: CHO-K1 (LOX-1-CHO), doxycycline-induced
Procedure: Tetracycline-inducible human LOX-1 (tagged with V5-6×His at C-terminus) expressing CHO-K1 (LOX-1-CHO) cells were maintained as previously described.[8]) The cells were seeded in 96-well plate at 10^4 cells/well in the presence of doxycycline (1 µg/mL) (Calbiochem, La Jolla, CA, USA) and were incubated in Ham’s F-12 medium containing 10% FBS at 37 ℃ for 24 h. After being washed with the medium without FBS, the cells were treated with foodstuff extracts or an anti-LOX-1 antibody at the final concentration of 10 µg/mL for 1 h. […] After washing, the cells were fixed with 10% formalin, and were stained with 4′,6-diamidino-2-phenylindole (DAPI) (Sigma, St. Louis, MO, USA). The binding of DiI-oxLDL to LOX-1-CHO cells were determined similarly to the uptake assay, except that the incubation of DiI-oxLDL was performed at 4 ℃ for 45 min. The samples were subjected to fluorescence microscopic analysis (Axiovert 200M, Zeiss, Oberkochen, Germany) or quantitative fluorescence analysis using the IN Cell analyzer system (GE Healthcare, Fairfield, CT, USA). Cell-associated DiI-oxLDL was determined as a ratio of DiI-oxLDL fluorescence intensity per cell in the presence of foodstuff extracts to that in the absence of extracts. All experiments were conducted in more than triplicates. For the determination of fluorescence quenching by procyanidins, the fluorescence was also measured before washing out unbound DiI-oxLDL (Spectramax, Molecular Devices, Sunnyvale, CA, USA). The final concentration of DMSO was less than 0.1% of total volume.

[2] = Plasma concentrations of procyanidin B2 and C1 in rats given OPC; format: in vivo; conditions: male, stroke-prone spontaneously hypertensive (SHR-SP), rat, po, 0.5 % (w/v) OPC in drinking saline, rats given 0.5% OPC orally in drinking saline for two days, sampled 7:00–8:00
Procedure: All protocols were approved by the Institutional Animal Care and Use Committee of the National Cerebral and Cardiovascular Center. Animals were individually housed at 23 ± 2 ℃ with 12 h light-dark cycles (7:00–19:00 light-on). Eight-week-old male stroke-prone spontaneously hypertensive rats (SHR-SP) (CLEA Japan, Tokyo, Japan) were divided into two groups (n = 8 each) with similar blood pressure, heart rates and body weights (tail cuff and pulse transducer system, BP-98A, Softron, Tokyo, Japan). They were given high fat diet without cholic acid or vitamin E (CLEA Japan, Tokyo, Japan) and physiological saline as drinking water for 2 weeks. Half of the rats received physiological saline containing 0.5%(w/v) oligomeric procyanidins (OPC) with various chain lengths purified from apples. At the end of the study, the rats were euthanized with isoflurane inhalation and blood was collected from vena cava between 11:00–14:00. The rats were perfused systemically with physiological saline for Oil Red O staining. Total cholesterol, high-density lipoprotein (HDL) cholesterol, triglyceride, and thiobarbituric acid reactive substance (TBARS) were determined enzymatically using commercially available kits (Wako Pure Chemical Industries, Osaka, Japan; Zeptometrix corporation, Buffalo, NY, USA). […]

IC50 ([1]; DiI-oxLDL 10 µg/mL) [µM] | concentration at 2 days [2] [ng/mL] | fluorescence of DiI-oxLDL in LOX-1-CHO cells (binding, microscopy) ([1]; 300 ng/mL, DiI-oxLDL 10 µg/mL, Fig. 4A) | IC50 ([1]; DiI-oxLDL 1 µg/mL, data not shown) [µM] | IC50 ([1]; DiI-oxLDL 3 µg/mL, data not shown) [µM] | Compound
0.0542 |  |  |  |  | Oc1cc(O)c2c(c1)OC(c1ccc(O)c(O)c1)C(O)C2c1c(O)cc2c(c1O)C(c1c(O)cc(O)c3c1OC(c1ccc(O)c(O)c1)C(O)C3)C(O)C(c1ccc(O)c(O)c1)O2 (stereo not drawn) [epicatechin(4β-6)epicatechin(4β-8)catechin]
0.0842 |  |  |  |  | Oc1cc(O)c2c(c1)OC(c1ccc(O)c(O)c1)C(O)C2c1c(O)cc2c(c1O)C(c1c(O)cc(O)c3c1OC(c1ccc(O)c(O)c1)C(O)C3)C(O)C(c1ccc(O)c(O)c1)O2 (stereo not drawn) [epicatechin(4β-6)epicatechin(4β-8)epicatechin]
0.0473 |  |  |  |  | Oc1cc(O)c2c(c1)OC(c1ccc(O)c(O)c1)C(O)C2c1c(O)cc(O)c2c1OC(c1ccc(O)c(O)c1)C(O)C2c1c(O)cc(O)c2c1OC(c1ccc(O)c(O)c1)C(O)C2 (stereo not drawn) [epicatechin(4β-8)epicatechin(4β-8)catechin]
 | 7.9 ± 1.8 |  |  |  | Oc1cc(O)c2c(c1)O[C@H](c1ccc(O)c(O)c1)[C@H](O)[C@H]2c1c(O)cc(O)c2c1O[C@H](c1ccc(O)c(O)c1)[C@H](O)C2 [procyanidin B2, epicatechin(4β-8)epicatechin]
0.0588 | 4.9 ± 1.9 | significantly attenuated | 0.00808 | 0.03 | Oc1cc(O)c2c(c1)O[C@H](c1ccc(O)c(O)c1)[C@H](O)[C@H]2c1c(O)cc(O)c2c1O[C@H](c1ccc(O)c(O)c1)[C@H](O)[C@H]2c1c(O)cc(O)c2c1O[C@H](c1ccc(O)c(O)c1)[C@H](O)C2 [procyanidin C1, epicatechin(4β-8)epicatechin(4β-8)epicatechin]
